Assay results as given in patent US20180251425A1, “2,3,5 TRISUBSTITUTED PYRROLE DERIVATIVES AS TOPOISOMERASE INHIBITORS AND THERAPEUTIC USES THEREOF” (UNIVERSITY OF MYSORE, priority 2015, published 2018).

Test system: Molt4 cells
Experiment: Annexin V-FITC/PI staining for apoptosis
Format: cell-based, Human
Conditions: 0.25 & 0.5 μM, 48 h
Procedure: To identify induction of apoptosis after treatment withASR6 in Molt4 cells, annexin V-FITC and propidium iodide staining was carried out. Briefly, Molt4 cells (0.5×10^5 cells per ml) were seeded in 24 well plate and treated with ASR6 (0.25 & 0.5 μM; 48 h). Cells were washed with 1× phosphate buffered saline and suspended in cell binding buffer, stained with Annexin V-FITC (0.2 mg/ml) and propidium iodide (0.05 mg/ml)(Santacruz, USA), and incubated in dark for 20 min at room temperature. Finally cells were subjected to FACS analysis (FACSVerse™BD Bioscience, USA) (10,000 cells were acquired). The results were analyzed in WinMDI 2.9 Software, bar diagram was plotted using at least two independent experiments with error bar.

CCOC(=O)c1[nH]c(-c2ccc(Cl)cc2)cc1-c1cccnc1 [ASR6, Ethyl 5-(4-chlorophenyl)-3-(pyridin-3-yl)-1H-pyrrole-2-carboxylate]
Apoptotic cell population (annexin V-FITC/PI): significant increase in apoptotic cell population
